Laboratory results published in paper PMC12117170.

Test: Intramolecular Cu-catalysed sydnonimine-alkyne click-and-release (forms 1,4-disubstituted pyrazole, releases CO2 and pyrenylmethyl urea/isocyanate): CuSO4 0.2 eq, bathophenanthroline disulfonate 0.4 eq, Na ascorbate 3 eq, triethanolamine 2 eq, 16 h; rGO filtration and aqueous work-up
Conditions: DMSO/H2O 1:1, 35.0 mM, 37.0 °C

## CC(C)C[C@@H]1NC(=O)[C@@H]2CCCN2Cc2cnn(c2)-c2cccc(c2)C(=O)NCCNC(=O)CNC1=O
From C#CCN1CCC[C@H]1C(=O)N[C@@H](CC(C)C)C(=O)NCC(=O)NCCNC(=O)c1cccc(-[n+]2cc([N-]C(=O)NCc3ccc4ccc5cccc6ccc3c4c56)on2)c1, 21-membered ring
  ring closure, isolated yield: 79%

## CC(C)C[C@@H]1NC(=O)c2cccc(c2)-n2cc(cn2)CNC(=O)[C@H](C)NC1=O [3-(sydnonimine-pyrene)benzoyl-Leu-Ala-NH-propargyl]
From C#CCNC(=O)[C@H](C)NC(=O)[C@H](CC(C)C)NC(=O)c1cccc(-[n+]2cc([N-]C(=O)NCc3ccc4ccc5cccc6ccc3c4c56)on2)c1, 15-membered ring
  ring closure, isolated yield: 68%

## CC(C)C[C@@H]1NC(=O)[C@H](Cc2ccccc2)NC(=O)c2cccc(c2)-n2cc(cn2)CNC1=O [3-(sydnonimine-pyrene)benzoyl-Phe-Leu-NH-propargyl]
From C#CCNC(=O)[C@H](CC(C)C)NC(=O)[C@H](Cc1ccccc1)NC(=O)c1cccc(-[n+]2cc([N-]C(=O)NCc3ccc4ccc5cccc6ccc3c4c56)on2)c1, 15-membered ring
  ring closure, isolated yield: 63%

## O=C1CNC(=O)[C@H](Cc2c[nH]c3ccccc23)NC(=O)c2cccc(c2)-n2cc(cn2)CN1 [3-(sydnonimine-pyrene)benzoyl-Trp-Gly-NH-propargyl]
From C#CCNC(=O)CNC(=O)[C@H](Cc1c[nH]c2ccccc12)NC(=O)c1cccc(-[n+]2cc([N-]C(=O)NCc3ccc4ccc5cccc6ccc3c4c56)on2)c1, 15-membered ring
  ring closure, isolated yield: 75%

## C#CCNC(=O)CNC(=O)c1cccc(-[n+]2cc([N-]C(=O)NCc3ccc4ccc5cccc6ccc3c4c56)on2)c1 [S1 -> CyP1]
The molecule shown is the open-chain precursor, 12-membered ring
  ring closure, isolated yield: 0%

## O=C1CCCCNC(=O)c2cccc(c2)-n2cc(cn2)CN1 [S2 -> CyP2]
From C#CCNC(=O)CCCCNC(=O)c1cccc(-[n+]2cc([N-]C(=O)NCc3ccc4ccc5cccc6ccc3c4c56)on2)c1, 15-membered ring
  ring closure, isolated yield: 75%

## O=C1CCCCCCCNC(=O)c2cccc(c2)-n2cc(cn2)CN1 [S3 -> CyP3]
From C#CCNC(=O)CCCCCCCNC(=O)c1cccc(-[n+]2cc([N-]C(=O)NCc3ccc4ccc5cccc6ccc3c4c56)on2)c1, 18-membered ring
  ring closure, isolated yield: 85%

## O=C1CCCCCCCCCCNC(=O)c2cccc(c2)-n2cc(cn2)CN1 [S4 -> CyP4]
From C#CCNC(=O)CCCCCCCCCCNC(=O)c1cccc(-[n+]2cc([N-]C(=O)NCc3ccc4ccc5cccc6ccc3c4c56)on2)c1, 21-membered ring
  ring closure, isolated yield: 65%

## O=C1CCCCCCCCCCNC(=O)c2cccc(c2)-n2cc(cn2)CNC(=O)CN1 [S5 -> CyP5]
From C#CCNC(=O)CNC(=O)CCCCCCCCCCNC(=O)c1cccc(-[n+]2cc([N-]C(=O)NCc3ccc4ccc5cccc6ccc3c4c56)on2)c1, 24-membered ring
  ring closure, isolated yield: 68%

## O=C1CCCCCCCCCCNC(=O)c2cccc(c2)-n2cc(cn2)CNC(=O)CCCCN1 [S6 -> CyP6]
From C#CCNC(=O)CCCCNC(=O)CCCCCCCCCCNC(=O)c1cccc(-[n+]2cc([N-]C(=O)NCc3ccc4ccc5cccc6ccc3c4c56)on2)c1, 27-membered ring
  ring closure, isolated yield: 78%

## O=C1NCCOCCOCCOCc2cnn(c2)-c2cccc1c2 [S7 -> CyP7 (50 C)]
From C#CCOCCOCCOCCNC(=O)c1cccc(-[n+]2cc([N-]C(=O)NCc3ccc4ccc5cccc6ccc3c4c56)on2)c1, 18-membered ring
  ring closure, isolated yield: 81%

## O=C1CCc2cnn(c2)-c2cccc(c2)C(=O)Nc2ccc(cc2)Oc2cccc(c2)Oc2ccc(cc2)N1 [S8 -> CyP8]
From C#CCCC(=O)Nc1ccc(Oc2cccc(Oc3ccc(NC(=O)c4cccc(-[n+]5cc([N-]C(=O)NCc6ccc7ccc8cccc9ccc6c7c89)on5)c4)cc3)c2)cc1, 25-membered ring
  ring closure, isolated yield: 72%

## COC(=O)[C@@H]1CCCCNC(=O)c2cccc(c2)-n2cc(cn2)CCCC(=O)N1 [hex-5-ynoyl-Lys(Nε-3-(sydnonimine-pyrene)benzoyl)-OMe]
From C#CCCCC(=O)N[C@@H](CCCCNC(=O)c1cccc(-[n+]2cc([N-]C(=O)NCc3ccc4ccc5cccc6ccc3c4c56)on2)c1)C(=O)OC, 18-membered ring
  ring closure, isolated yield: 76%
